Experimental data published in US7846891B2, “Self-assembling peptides for regeneration and repair of neural tissue” (Massachusetts Institute of Technology, priority 2003, dated 2010).
“Also recorded” adds a separate entry of the source.

Key:
[1] = system: optic tract within the superior colliculus (brain wound); test: Optic tract transection (knife wound in superior colliculus) in P2 hamster pups; histology and CT-B axon tracing; format: in vivo, Syrian hamster
Protocol: Animals and surgery. Syrian hamster pups at two days of age (P2) were anesthetized with whole-body cooling. […] At surgery, 10 animals were treated by injection into the brain wound of 10 microliters of 1% SAP RADA16-I (n-RADARADARADARADA-c; SEQ ID NO: 1) prepared by dissolving peptide in sterile water. The overlying scalp was then closed with tissue glue (cyanoacrylic). The pups were returned to the cage, placed under a heat lamp, and monitored until they recovered. After recovery the hamster pups were returned to their mother. Control animals with the same lesion included 3 with isotonic saline injection (10 microliters), and 27 earlier cases with knife cuts and no injection.
(§1) Axon tracing method. Four days before the animals were sacrificed they were anesthetized with intraperitoneal injection of Valium (50 mg/kg) and Nembutal (10 mg/kg). […]. This was accomplished with the aid of glass micropipette (tip diameter ˜10 μm) attached to a General Valve Pico Spritzer as previously described. The subjects were then returned to their cages, under a heat lamp, and monitored until they recovered.
Histology. The animals were sacrificed with an overdose of anesthesia 4 days after the intraocular injection of CT-B and were then perfused transcardially with PBS buffer (pH 7.4) followed by 2% paraformaldehyde in 0.1M phosphate buffer (pH 7.4). The brains and eyes were removed and postfixed at 4° C. until they sank. The tissue was cut on a cryostat in 30 micron coronal sections. These sections were mounted directly on gelatin-coated slides. The mounted sections were first air dried, then washed with PBS (pH 7.4) three times at 10 min intervals, and then preblocked in PBS (pH 7.4) containing 2% Triton X-100, 2% normal rabbit serum, and 2.5% bovine serum albumin for 30 min at room temperature. The slides were then incubated with goat anti-cholaragenoid (List Biological Lab, Inc.) (1:8000 dilution)+2% Triton X-100, 2% normal rabbit serum, and 2.5% bovine serum albumin for 48 hours at room temperature. Slides were then washed in PBS (pH 7.4) for three rounds of 10 min each. Sections were incubated with fluorescent donkey anti-IgG antibody Alexa-488 (secondary antibody from Molecular Probes, Inc.) (1:200 dilution) for 1 her 30 min at room temperature in a light protected chamber. Slides were then washed in PBS (pH 7.4) 4 to 5 times at 5 min intervals. The slides were then cover-slipped with Dabco. The slides were visualized through a fluorescent microscope and pictures were taken with a Kodak DCS 620 digital camera. […]

[2] = system: brachium of the superior colliculus (brain wound); test: Visually elicited orienting (head turning) test after transection of the brachium of the superior colliculus in adult hamsters; format: in vivo, Syrian hamster; details: BSC transected at 2 months of age, 10 ul of 1% SAP at surgery, testing from day 44-46, listed as SAP
Protocol: Thus functional recovery of severed axons can be assessed by evaluating visually elicited head turning at various times after infliction of a lesion that severs the brachium, such as those described in Example 1.
To determine the extent of return of vision the animals are tested for visually elicited orienting responses. The identity of the animal is unknown to the investigator during testing periods. Before behavioral testing, the animals are habituated to the testing environment. Videotaping of the response is accomplished by the use of an overhead Sony digital video (DV) recorder. Some of the trials are simultaneously taped from the side with another Sony DV recorder. Later the video is analyzed frame-by-frame on a 21-inch monitor. All of the cameras are time synchronized. The first type of analysis is to determine if the trial is valid or invalid. Once a trial is judged as valid it is analyzed frame by frame, which enables us to plot the position of the stimulus with respect to the initial head location. The angle of the head at the beginning of the turning movement is set to zero. […]
The y axis represents the number of times the animal turned toward the stimulus during testing, expressed as a percentage of the number of times the stimulus was presented on the side that had received the lesion and SAP treatment. […]

[3] = system: brachium of the superior colliculus (brain wound); test: Histology and CT-B axon tracing after transection of the brachium of the superior colliculus in adult hamsters; format: in vivo, Syrian hamster; details: BSC transection; for axon growth through the lesion site (CT-B tracing) / tissue reconnection / repair at the lesion site (histology): 10 ul of 1% SAP, section 2 months after injection
Protocol: as §1
Histology. The animals were sacrificed with an overdose of anesthesia 4 days after the intraocular injection of CT-B and were then perfused transcardially with PBS buffer (pH 7.4) followed by 2% paraformaldehyde in 0.1M phosphate buffer (pH 7.4). The brains and eyes were removed and postfixed at 4° C. until they sank. The tissue was cut on a cryostat in 30 micron coronal sections. These sections were mounted directly on gelatin-coated slides. The mounted sections were first air dried, then washed with PBS (pH 7.4) three times at 10 min intervals, and then preblocked in PBS (pH 7.4) containing 2% Triton X-100, 2% normal rabbit serum, and 2.5% bovine serum albumin for 30 min at room temperature. The slides were then incubated with goat anti-cholaragenoid (List Biological Lab, Inc.) (1:8000 dilution)+2% Triton X-100, 2% normal rabbit serum, and 2.5% bovine serum albumin for 48 hours at room temperature. Slides were then washed in PBS (pH 7.4) for three rounds of 10 min each. Sections were incubated with fluorescent donkey anti-IgG antibody Alexa-488 (secondary antibody from Molecular Probes, Inc.) (1:200 dilution) for 1 her 30 min at room temperature in a light protected chamber. Slides were then washed in PBS (pH 7.4) 4 to 5 times at 5 min intervals. The slides were then cover-slipped with Dabco. The slides were visualized through a fluorescent microscope and pictures were taken with a Kodak DCS 620 digital camera.
At the time of surgery, animals were treated by injection of 10 ul of 1% SAP RAD16-I into the brain wound. Animals were allowed to recover from surgery and maintained under standard laboratory conditions.
. Axon tracing and histology were performed as described above to allow visualization of the lesion site and assessment of axon regrowth. FIG. 10 is a parasagittal section of the dorsal midbrain of a hamster. Rostral is left and caudual is right. The section is from an 8 month old hamster and was taken 2 months following infliction of the lesion. The bright yellow in the middle of the picture that extends from the lower left to the upper right is in the middle of the lesion site. Retinal projections show as gray. Note the axons extending through the center of the cut. […] In addition, the tissue has reconnected at the lesion site in a similar manner to that observed in the younger animals.

[4] = Self-assembly of SAP on addition to CSF in vitro; format: physicochemical; details: data not shown

Substance: n-RADARADARADARADA-c [RADA16-I]
- axon regrowth across the lesion (cholera-toxin labeling) ([1]; 1 month hamster, lesion at P2 injected with 10 microliters of 1% SAP): axons have extended from a location proximal to the lesion to a distal location
- scar at lesion site (bright-field image) ([1]; 2 months after lesion and injection of SAP): minimal nature of the scar
- re-innervation of the caudal SC by the severed retinofugal axons ([1]; lesion at P2, 10 ul of 1% SAP): partial re-innervation of the caudal SC
- tissue reconnection across the lesion (histology) ([1]; lesion at P2, 10 ul of 1% SAP injected into brain wound, survival 1, 3, 6, 30 or 60 days, vs saline and no-injection controls (χ^2=34.8, df (1), p<<0.001)): the tissue appears to have reconnected across the lesion at all survival times
- behavioral recovery (response to visual stimulus) [2]: significant behavioral recovery; also recorded: return of functional vision in six animals
- re-innervation of the SC by the severed retinofugal axons ([3]; 10 ul of 1% SAP at surgery): partial re-innervation of the SC
- axon growth through the lesion site (CT-B tracing) ([3]; listed as RAD16-I): axons have extended their processes to the superior colliculus
- tissue reconnection / repair at the lesion site (histology) ([3]; listed as RAD16-I): All of the tissue has repaired itself
- axon growth through the lesion site (CT-B tracing) ([3]; listed as SAP): axons growing through the site where the cut transected the brachium of the superior colliculus
- tissue reconnection / repair at the lesion site (histology) ([3]; listed as SAP): neural tissue reconnected across the site of the lesion
- self-assembly in CSF [4]: resulted in self-assembly to form a peptide scaffold
